These results are taken from patent publication US4151361A, “Prostaglandin derivatives” (American Home Products Corporation, priority 1978, dated 1979).

The assay concerns bronchoconstricting effects of a standard dose of acetylcholine. Put plainly: bronchodilation upon aerosol inhalation (inhibition of acetylcholine bronchoconstriction), method of Rosenthale et al. It counts as in vivo. To be noted: guinea pig, i.v. acetylcholine dose producing ca. 30% bronchoconstriction. An excerpt:
In using the compounds of the invention to produce bronchodilating effects in warm-blooded animals, they may be administered in a variety of dosage forms: oral, injectable, and aerosol inhalation. Aerosol inhalation is a preferred method because of its rapid onset of action, great potency, and specificity of action. The particular dosage to obtain the bronchodilating effect will vary with the particular compound employed, the particular animal involved, and the degree of bronchodilation desired. In the guinea pig, by aerosol inhalation, the dose to produce bronchodilation is from about 0.15 micrograms to about 25 micrograms, and preferably from about 0.15 to about 15 micrograms. The bronchodilation produced upon aerosol inhalation can be observed by the method of Rosenthale et al., J. Pharmacol. Exp. Ther., 178, 541 (1971). Using this procedure the following results were obtained:
*The dose (i.v.) of acetylcholine which produces a ca. 30%

As for `C#CC(O)(CCCCC)CC[C@H]1[C@H](O)CC(=O)[C@@H]1C/C=C\CCCC(=O)O` (stereo partly shown) [13,14-dihydro-15-ethynyl-PGE2, 13,14-Dihydro-15-Ethynyl-PGE2], the “Percent Inhibition of the Bronchoconstricting effects of a standard dose of acetylcholine” value (“Percent Inhibition” below) (dose 1.5 μg) was found to be 100%, the “Percent Inhibition” value (dose 15 μg) stood at 91%, the “Percent Inhibition” value (dose .015 μg) is listed as 94% and the “Percent Inhibition” value (dose .15 μg) was 96%.
In the case of `C#CC(O)(CCCCC)CC[C@@H]1[C@@H](C/C=C\CCCC(=O)O)[C@H](O)C[C@H]1O` (stereo partly drawn) [13,14-dihydro-15-ethynyl-PGF2β, 13,14-Dihydro-15-Ethynyl PGF2β], the “Percent Inhibition” value runs as follows: (dose 1.5 μg) 44%; (dose 15 μg) 63%.
With `C#CC(O)(CCCCC)CC[C@H]1[C@H](O)CC(=O)[C@@H]1CCCCCCC(=O)O` (stereo partly shown) [tetrahydro-15-ethynyl-PGE2, 15-Ethynyl-Tetrahydro-PGE2], the “Percent Inhibition” value by setting is: (dose 1.5 μg) 100%; (dose .0015 μg) 51%; (dose .015 μg) 86%; (dose .15 μg) 99%.
Consider `C#C[C@](O)(CCCCC)CC[C@H]1[C@H](O)CC(=O)[C@@H]1CCCCCCC(=O)O` [tetrahydro-15β-ethynyl-PGE2, 15β-ethynyl-tetrahydro-PGE2], for which the “Percent Inhibition” value worked out at 58% (dose .0015 μg), 95% (dose .015 μg) and 98% (dose .15 μg).
